From patent publication US20090318385A1, “Pyrazolopyride derivative and phosphodiesterase ( pde) inhibitors containing the same as active ingredient” (priority 2006, published 2009)

What was measured:
PDE4B catalytic domain = target: T1, PDE4B catalytic domain (Homo sapiens, UniProt Q07343); assay: Phosphodiesterase inhibitory activity (recombinant PDE4Bcat, [3H]cAMP); format: biochemical; conditions: 30° C. for 20 minutes, read-out: IC50 (μmol/L) PDE4
T1 construct: The cDNA of PDE4B catalytic domain (hereinafter abbreviated as Cat) was isolated from human RNA by RT-PCR; made in house; host or cells: Sf9 insect cells (baculovirus, Bac-to-Bac)
T1 sequence (Q07343 330-659 limits assumed): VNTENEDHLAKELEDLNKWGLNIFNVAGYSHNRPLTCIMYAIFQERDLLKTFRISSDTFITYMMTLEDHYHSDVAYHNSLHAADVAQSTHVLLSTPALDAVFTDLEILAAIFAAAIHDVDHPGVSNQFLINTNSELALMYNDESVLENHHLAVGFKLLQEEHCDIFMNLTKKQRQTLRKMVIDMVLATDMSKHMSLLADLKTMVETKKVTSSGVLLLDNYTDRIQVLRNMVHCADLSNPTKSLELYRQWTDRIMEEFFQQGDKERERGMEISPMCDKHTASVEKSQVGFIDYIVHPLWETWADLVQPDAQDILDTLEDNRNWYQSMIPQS
Text: The cDNA of PDE4B catalytic domain (hereinafter abbreviated as Cat) was isolated from human RNA by RT-PCR. The isolated cDNA fragments were inserted into Sf9 insect cells using Gateway system (product of Invitrogen Corporation) and Bac-to-Bac (registered trademark) Baculovirus Expression system (product of Invitrogen Corporation) to express a target PDE protein. The recombinant PDE4Bcat was purified from the culture supernatants or cell extracts of Sf9 cells expressing high levels of the PDE protein by ion exchange chromatography and was used for the following experiments.
A 4 mmol/L solution of each test compound was serially diluted four-fold with a 15% DMSO solution to prepare solutions with concentrations of 15 nmol/L to 4 mmol/L (the final concentrations used in the experiments were 1.5 nmol/L to 400 μmol/L). 10 μL of the prepared test compound solutions, [^3H] cAMP diluted with a buffer solution (40 mmol/L Tris-HCl (pH: 7.4), 10 mmol/L MgCl2), and 40 μL of the recombinant human PDE protein (2×10^−6 units, 1 unit is defined as the amount of PDE that breaks down 1 μmol/L of cAMP in one minute under the conditions of a pH of 7.5 and 30° C.) were added to a 96-well plate. The mixtures were reacted at 30° C. for 20 minutes. Then, the resultant mixtures were reacted at 65° C. for 2 minutes. Subsequently, […] of 1 mg/mL 5′-nucleotidase (Crotalusatrox venom, product of Sigma) was added to the mixtures, and the mixtures were reacted at 30° C. for 10 minutes. After completion of the reaction, 200 μL of a solution of Dowex (300 mg/mL Dowex 1x8-400 (product of Sigma Aldrich), 33% ethanol) was added to the mixtures, and the mixtures were shaken at 4° C. for 20 minutes. Subsequently, 200 μL of MicroScint 20 (product of Packard) was added to the mixtures, and measurement was performed using a scintillation counter (Topcount, product of Packard). IC50 values were calculated using Graph Pad Prism v3.03 (product of GraphPad Software). When 1 μmol/L>the IC50 value≧0.1 μmol/L, the results were represented by “+.” When 0.1 μmol/L>the IC50 value, the results were represented by “++.”

[1] = test system: histamine-induced bronchoconstriction; assay: Histamine-induced airway contraction reaction in guinea pigs; format: in vivo; conditions: test compound 1 mg/kg i.v., histamine 12.5 μg/kg i.v., airflow 30 seconds after administration
Experimental: Guinea pigs were anesthetized with pentobarbital (30 mg/kg, i.p.). A cannula for intravenous administration, a cannula for collecting blood and measuring blood pressure, and a tracheal cannula were inserted into the left external jugular vein, right internal carotid artery, and trachea, respectively. The guinea pigs were maintained on artificial respiration under the conditions of 60 times/min and 10 mL/kg/stroke. The airflow from the side branch of the tracheal cannula was measured by a bronchospasm transducer (Ugo-Basile) and recorded on a computer via Power Lab (ADInstruments Japan). The guinea pigs were immobilized with gallamine (10 mg/kg, i.v.), and histamine was administered at 10-minute intervals (12.5 μg/kg, i.v.). After the histamine-induced bronchoconstriction was constant, one of the test compounds (1 mg/kg, i.v.) dissolved in DMSO was administered. We examined the inhibitory action of test compounds on histamine-induced bronchoconstriction 30 seconds after compounds administration. Bronchoconstriction was recorded as the value of airflow, and the results were represented by the ratio of the maximum value of the histamine-induced airflow 30 seconds after the administration to the maximum value of the airflow before the administration. When the inhibition ratio≧90%, the results were represented by “+++.” When 90%>the inhibition ratio≧70%, the results were represented by “++.” When 70%>the inhibition ratio≧30%, the results were represented by “+.”

[2] = test system: total number of leukocytes in bronchoalveolar lavage fluid after LPS inhalation; assay: LPS acute inflammation model in rats; format: in vivo; conditions: Rattus norvegicus, Leukocyte, po, 3 mg/kg orally one hour before LPS inhalation, total leukocytes in BALF 3 hours after LPS inhalation, read-out: Inhibition ratio
Experimental: 3 mg/kg of the compounds were orally administered to rats one hour before inhalation of lipopolysaccharide (LPS) from E. coli serotype 055:B5, rats were inhalted nebulizing LPS solution (50 mL) by nebulizer for 30 minutes. Then, 3 hours after the LPS inhalation, rats were euthanized with 20% urethane (5 ml/rat, i.p.) 5 ml of physiological saline for bronchoalveolar lavage was injected into the bronchoalveolar space through the airway, and the bronchoalveolar space was washed 3 times using a 5 mL syringe. This procedure was repeated twice, and the solution was collected as bronchoalveolar lavage fluid (BALF). The collected BALF was centrifuged at 1,200 rpm and 4° C. for 10 minutes (Hirtachi; himac CR 5 DL). The sediment was re-suspended in 10 mL of a 0.1% bovine serum albumin-physiological saline, and an equivalent amount of Turk's solution was added to the suspension to stain leukocytes. The total number of leukocytes was counted under a microscope to determine the inhibition ratio. When the inhibition ratio≧60%, the results were represented by “++.” When 60%>the inhibition ratio≧30%, the results were represented by “+.”

| IC50 (PDE4B catalytic domain) | Compound | Inhibition ratio [1] | inhibition in vivo at 3 mg/kg [2] |
| --- | --- | --- | --- |
| < 0.1 µmol/L | COc1ccc(/C=C/c2c(Cl)cncc2Cl)c2cc(C(F)(F)F)nn12 [Example 89, (E)-4-[2-(3,5-dichloropyridin-4-yl)vinyl]-7-methoxy-2-trifluoromethylpyrazolo[1,5-a]pyridine] | + (When 70%>the inhibition ratio≧30%, the results were represented by “+.”) | 30 to 60% |
| < 0.1 µmol/L | COc1ccc(C=Cc2ccncc2)c2cc(C(F)(F)F)nn12 [Example 78, 7-Methoxy-4-[(2-pyridin-4-yl)vinyl]-2-trifluoromethylpyrazolo[1,5-a]pyridine] | + (When 70%>the inhibition ratio≧30%, the results were represented by “+.”) | 30 to 60% |
| < 0.1 µmol/L | COc1ccc(CCc2ccncc2)c2cc(C(F)(F)F)nn12 [Example 79, 7-Methoxy-4-[(2-pyridin-4-yl)ethyl]-2-trifluoromethylpyrazolo[1,5-a]pyridine] | + (When 70%>the inhibition ratio≧30%, the results were represented by “+.”) | ≥ 60% |
| < 0.1 µmol/L | COc1ccc(C(=O)Cc2c(Cl)cncc2Cl)c2cc(C(F)(F)F)nn12 [Example 88, 2-(3,5-Dichloropyridin-4-yl)-1-(7-methoxy-2-trifluoromethylpyrazolo[1,5-a]pyridin-4-yl)ethanone] | ++ (When 90%>the inhibition ratio≧70%, the results were represented by “++.”) | ≥ 60% |
